Test results taken from patent US10316079B2, “Monoclonal antibody against muramyl peptides” (priority 2012, dated 2019).

Experiments:
[1] = tested on: binding of 2E7 to N-acetylmuramyl-L-alanyl-D-isoglutamine conjugated to OVA; test: Competitive ELISA for antigen specificity of 2E7; set-up: species or system mouse; settings: concentration dependent, compared with N-acetylmuramyl-L-alanyl-D-isoglutamine
Source text: To enhance the antigenicity of the MDPs, these molecules were conjugated to the human serum albumin (HSA) using a linker molecule. The carboxylic acid moiety of MDPs was first coupled to N-Boc-ethylenediamine, and then the Boc protection group was removed and the resulting amine was linked to HSA with glutaraldehyde. […] The MDP-HSA conjugates were then used to immunize BALB/c mice. Serum antigen-specific titers of the immunized mice were examined by enzyme-linked immunosorbent assay (ELISA) against MDPs conjugated to ovalbumin (OVA) using the same linkage strategy as described above. Generation of hybridoma cell lines, screening of antibody-producing clones, preparation and purification of mAbs, and mAb isotyping were carried out by following standard protocols. Antigen specificity of a mAb was determined using competitive ELISA to test the ability of different MDPs and constituent moieties to inhibit the binding of a mAb to the MDP originally used as antigen for immunization.

[2] = tested on: bacteria of the mouse microbiota; test: Blood MP level in mice fed amoxicillin, competitive ELISA using 2E7; assay type: in vivo; settings: amoxicillin 100 mg/kg fed at 12-h intervals, 4 h after each feeding
Experimental: Amoxicillin was administered orally to 50 mice at 12-h intervals and three mice were sacrificed every 4 h to collect blood for peptidoglycan quantification by ELISA. […] Serial blood samples were taken. Time for blood draw and IV injection are indicated.
The MP level in serum was determined by competitive ELISA using an example of the antibody of the present disclosure, i.e. 2E7.

Escherichia coli = test: MPs released into culture supernatant with amoxicillin, competitive ELISA using 2E7; assay type: cell-based; settings: 40 μg per ml amoxicillin added at OD600=1.5; vs untreated culture
Experimental: (§1) Power Fit equation y=a*(x−b)^c using CurveExpert Basic. The standard curve was used to determine the peptidoglycan to concentration in a sample. […] Both bacteria were grown to OD600=1.5. Each culture was divided into two, and one treated with 40 μg/ml amoxicillin (Atex) and the other untreated. Aliquots were collected at the indicated times and the amount of MPs in the supernatant was determined by competitive ELISA. […] After removing unbound antibodies by PBS washes, the cells were incubated with a FITC-labeled anti-mouse IgG Ab before fluorescence microscopic examination.
(§2) For this test, Gram-positive bacterium Staphylococcus aureus, which has a thick peptidoglycan layer, and […] Escherichia coli, which has a thin peptidoglycan layer, were selected and grown in the presence or absence of amoxicillin. The culture was grown to a density of OD600=1.5 and then divided into two equal aliquots. To one aliquot, amoxicillin was added to a final concentration of 40 μg per ml, and to the other aliquot, no drug was added. Both cultures were allowed to continue to grow. Aliquots of cultures were collected at timed intervals and cells were removed by centrifugation. The amount of MPs in the supernatant was determined by competitive ELISA using 2E7.

Staphylococcus aureus = test: as above; assay type: cell-based; settings: 40 μg per ml amoxicillin added at OD600=1.5; vs untreated culture
Experimental: as §1, §2

Row | Compound | inhibition of 2E7 binding to N-acetylmuramyl-L-alanyl-D-isoglutamine conjugated to OVA [1] | increase in the blood MP level [2] | molecules in culture medium that inhibit 2E7 binding to N-acetylmuramyl-L-alanyl-D-isoglutamine (MPs) (Escherichia coli) | molecules in culture medium that inhibit 2E7 binding to N-acetylmuramyl-L-alanyl-D-isoglutamine (MPs) (Staphylococcus aureus)
1 | CC(=O)N[C@H]1C(O)O[C@H](CO)[C@@H](O)[C@@H]1O[C@H](C)C(=O)N[C@H](C)C(=O)N[C@H](CCC(=O)O)C(=O)O (stereo partly drawn) [N-acetylmuramyl-L-alanyl-D-glutamate] | almost as effectively as N-acetylmuramyl-L-alanyl-D-isoglutamine | – | – | –
2 | muramyl-L-alanyl-D-isoglutamine | almost as effectively as N-acetylmuramyl-L-alanyl-D-isoglutamine | – | – | –
3 | CC(NC(=O)C(C)OC1C(N)C(O)OC(CO)C1O)C(=O)NC(CCC(=O)O)C(=O)O [muramyl-L-alanyl-D-glutamate] | almost as effectively as N-acetylmuramyl-L-alanyl-D-isoglutamine | – | – | –
4 | CC1(C)S[C@@H]2[C@H](NC(=O)[C@H](N)c3ccc(O)cc3)C(=O)N2[C@H]1C(=O)O [amoxicillin] | – | 20-60% | sharp increase | sharp increase
